Calls of active or inactive are those of the source. The rule behind the calls is not given here.
Tests used:
[1] = Induction of colloidal aggregates formation in Tris/NaCl/MgCl2/CHAPS/beta-mercaptoethanol buffer at 200 uM by dynamic light scattering method; type: physicochemical
[2] = molecular target: T1, 3-phosphoinositide-dependent protein kinase 1 (Homo sapiens, UniProt O15530); experiment: Activation of human PDK1 catalytic activity using T308tide as substrate after 1 hr by phosphor imager analysis in presence of [gamma-32P]-ATP relative to control
T1 sequence (O15530 whole entry): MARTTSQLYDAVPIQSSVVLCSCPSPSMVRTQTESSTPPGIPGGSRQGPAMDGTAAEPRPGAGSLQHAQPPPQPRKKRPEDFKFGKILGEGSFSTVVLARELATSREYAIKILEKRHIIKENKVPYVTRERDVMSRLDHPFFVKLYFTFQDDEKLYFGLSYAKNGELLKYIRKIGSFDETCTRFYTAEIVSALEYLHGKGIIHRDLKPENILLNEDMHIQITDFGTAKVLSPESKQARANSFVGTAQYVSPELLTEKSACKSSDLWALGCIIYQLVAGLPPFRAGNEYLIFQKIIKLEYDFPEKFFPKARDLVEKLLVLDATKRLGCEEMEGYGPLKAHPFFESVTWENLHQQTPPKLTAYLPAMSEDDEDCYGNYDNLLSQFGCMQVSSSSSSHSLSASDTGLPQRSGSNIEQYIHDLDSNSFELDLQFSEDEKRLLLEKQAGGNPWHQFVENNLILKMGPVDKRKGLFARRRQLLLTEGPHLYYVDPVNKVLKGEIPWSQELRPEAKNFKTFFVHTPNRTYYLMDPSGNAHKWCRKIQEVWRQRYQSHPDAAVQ

[3] = molecular target: Cruzipain (Trypanosoma cruzi) (UniProt P25779); experiment: Inhibition of Trypanosoma cruzi Cruzain using Z-FR-AMC as substrate preincubated for 5 mins followed by substrate addition measured for 5 mins by spectrofluorimetric analysis
[4] = Induction of colloidal aggregates formation in Tris/NaCl/Pluronic F-68 buffer at 300 uM by dynamic light scattering method; type: physicochemical
[5] = molecular target: T1, 3-phosphoinositide-dependent protein kinase 1; experiment: Displacement of PIFtide from human PDK1 PIF pocket after 1 hr by fluorescence polarization assay
[6] = Induction of colloidal aggregates formation in Tris/NaCl/Pluronic F-68 buffer at 100 uM by dynamic light scattering method; type: physicochemical

Chain of Cruzipain (Trypanosoma cruzi) (P25779 123-467 limits assumed): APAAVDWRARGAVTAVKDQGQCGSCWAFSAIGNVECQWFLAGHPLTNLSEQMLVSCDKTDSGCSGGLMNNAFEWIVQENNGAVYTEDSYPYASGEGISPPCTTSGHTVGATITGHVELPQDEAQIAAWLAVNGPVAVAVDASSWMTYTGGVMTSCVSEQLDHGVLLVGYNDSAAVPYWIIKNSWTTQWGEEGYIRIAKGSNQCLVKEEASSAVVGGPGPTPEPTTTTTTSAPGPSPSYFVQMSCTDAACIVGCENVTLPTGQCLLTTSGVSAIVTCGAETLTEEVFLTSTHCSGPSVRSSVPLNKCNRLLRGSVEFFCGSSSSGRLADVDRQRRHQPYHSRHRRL

Row | Structure (SMILES) | Kd [5] | also measured
1 | Cc1ccc(OCCSc2nc3ccccc3n2CC(=O)O)c(C)c1 | 39.1 µM | Activity [1]: Not Active; EC50 [2]: 40 µM; inhibition [3]: inactive; Activity [4]: Not Active; Activity [6]: Not Active
2 | C[C@H](CN[C@H](c1ccc(F)cc1)P(=O)(O)O)c1ccccc1 | > 200 µM | –
3 | O=P(O)(O)[C@H](NC[C@@H]1CCCc2ccccc21)c1ccc(F)cc1 | 39.4 µM | Activity [1]: Not Active; EC50 [2]: 50 µM; inhibition [3]: inactive; Activity [4]: Not Active
4 | O=C(O)CSc1nc2ccccc2n1CCOc1ccccc1 | 120 µM | –
5 | Cc1ccccc1OCCSc1nc2ccccc2n1CCC(=O)O | 74 µM | –
6 | Cc1cccc(OCCn2c(SCC(=O)O)nc3ccccc32)c1 | 75 µM | –
7 | O=C(O)Cn1c(SCc2ccccc2)nc2ccccc21 | > 200 µM | –
8 | O=C(O)Cn1c(SCCOc2ccccc2)nc2ccccc21 | > 200 µM | –
9 | O=C(O)Cn1c(SCc2cccc3ccccc23)nc2ccccc21 | 120 µM | –
10 | Cc1cccc(OCCSc2nc3ccccc3n2CC(=O)O)c1C | 110 µM | –
11 | C[C@@H](CN[C@H](c1ccc(F)c(F)c1)P(=O)(O)O)c1ccccc1 | 83 µM | –
12 | Cc1ccccc1OCCSc1nc2ccccc2n1CC(=O)O | 50 µM | –
13 | COc1ccccc1OCCSc1nc2ccccc2n1CC(=O)O | > 200 µM | –
14 | C[C@@H](CN[C@H](c1ccccc1)P(=O)(O)O)c1ccccc1 | 150 µM | –
15 | O=P(O)(O)[C@H](NCCc1ccc(F)cc1)c1ccc(F)cc1 | > 200 µM | –
16 | O=C(O)Cn1c(SCCOc2ccccc2F)nc2ccccc21 | > 200 µM | –
17 | O=C(O)C/C(=C/c1cccc(C(F)(F)F)c1)c1nc2ccccc2o1 | > 200 µM | –

From ChEMBL document CHEMBL3621144, “Small-Molecule Allosteric Modulators of the Protein Kinase PDK1 from Structure-Based Docking” (J Med Chem, 2015)
